# Measured values: PMC4979471 (Cell Death Discovery, 2015)
# Like-named read-outs stand apart in the source and are kept apart here.
# How the values were obtained:
# Experiment in all cases: Kinase selectivity, P33-radiolabeled assay
# Format in all cases: biochemical
# IGF1R = biological target: T1, IGF1R (Homo sapiens, UniProt P08069)
# T1 construct: purchased Reaction Biology Corp
# How it was run: (§1)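 ATP at 10 μM; test article at 10 μM, single point, two replicates. Output is activity as % of DMSO.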
# PKCmu/PRKD1 = biological target: T2, PKCmu/PRKD1 (Homo sapiens, UniProt Q15139)
# T2 construct: purchased Reaction Biology Corp
# T2 sequence (Q15139 1-912): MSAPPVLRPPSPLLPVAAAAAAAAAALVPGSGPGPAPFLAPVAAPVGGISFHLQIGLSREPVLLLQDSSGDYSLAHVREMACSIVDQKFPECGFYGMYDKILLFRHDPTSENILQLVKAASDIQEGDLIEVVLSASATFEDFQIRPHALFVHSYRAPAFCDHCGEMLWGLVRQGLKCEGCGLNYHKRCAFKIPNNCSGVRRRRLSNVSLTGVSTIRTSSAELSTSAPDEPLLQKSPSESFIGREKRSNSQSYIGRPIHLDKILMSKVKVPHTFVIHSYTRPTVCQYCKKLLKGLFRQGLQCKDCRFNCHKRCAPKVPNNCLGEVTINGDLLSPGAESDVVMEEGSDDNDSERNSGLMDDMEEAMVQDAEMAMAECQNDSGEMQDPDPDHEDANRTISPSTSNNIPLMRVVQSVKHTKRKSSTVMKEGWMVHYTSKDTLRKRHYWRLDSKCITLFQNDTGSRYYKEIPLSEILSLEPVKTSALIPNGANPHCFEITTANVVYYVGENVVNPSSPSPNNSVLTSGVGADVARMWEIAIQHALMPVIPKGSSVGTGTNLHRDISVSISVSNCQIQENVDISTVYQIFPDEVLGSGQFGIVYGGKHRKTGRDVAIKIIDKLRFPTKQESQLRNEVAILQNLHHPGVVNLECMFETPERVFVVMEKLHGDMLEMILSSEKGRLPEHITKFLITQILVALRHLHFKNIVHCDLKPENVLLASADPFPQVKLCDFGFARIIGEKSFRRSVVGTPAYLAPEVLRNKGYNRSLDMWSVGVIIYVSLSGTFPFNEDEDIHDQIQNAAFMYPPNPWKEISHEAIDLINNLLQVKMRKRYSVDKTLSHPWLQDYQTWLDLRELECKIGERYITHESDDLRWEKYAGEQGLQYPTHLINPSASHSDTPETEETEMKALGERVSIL
# How it was run: as §1
# FER = biological target: T3, FER (Homo sapiens, UniProt P16591); details: 10 μM ATP
# T3 construct: purchased Reaction Biology Corp
# How it was run: as §1
# IRAK1 = biological target: T4, IRAK1 (Homo sapiens, UniProt P51617); details: 10 μM ATP
# T4 construct: purchased Reaction Biology Corp
# How it was run: as §1
# CAMK2b = biological target: T5, CAMK2b (Homo sapiens, UniProt Q13554); details: 10 μM ATP
# T5 construct: purchased Reaction Biology Corp
# How it was run: as §1
# MLK2/MAP3K10 = biological target: T6, MLK2/MAP3K10 (Homo sapiens, UniProt Q02779); details: 10 μM ATP
# T6 construct: purchased Reaction Biology Corp
# How it was run: as §1
# FGFR1 = biological target: T7, FGFR1 (Homo sapiens, UniProt P11362); details: 10 μM ATP
# T7 construct: purchased Reaction Biology Corp
# How it was run: as §1
# ULK1 = biological target: T8, ULK1 (Homo sapiens, UniProt O75385); details: 10 μM ATP
# T8 construct: purchased Reaction Biology Corp
# T8 sequence (O75385 1-1050): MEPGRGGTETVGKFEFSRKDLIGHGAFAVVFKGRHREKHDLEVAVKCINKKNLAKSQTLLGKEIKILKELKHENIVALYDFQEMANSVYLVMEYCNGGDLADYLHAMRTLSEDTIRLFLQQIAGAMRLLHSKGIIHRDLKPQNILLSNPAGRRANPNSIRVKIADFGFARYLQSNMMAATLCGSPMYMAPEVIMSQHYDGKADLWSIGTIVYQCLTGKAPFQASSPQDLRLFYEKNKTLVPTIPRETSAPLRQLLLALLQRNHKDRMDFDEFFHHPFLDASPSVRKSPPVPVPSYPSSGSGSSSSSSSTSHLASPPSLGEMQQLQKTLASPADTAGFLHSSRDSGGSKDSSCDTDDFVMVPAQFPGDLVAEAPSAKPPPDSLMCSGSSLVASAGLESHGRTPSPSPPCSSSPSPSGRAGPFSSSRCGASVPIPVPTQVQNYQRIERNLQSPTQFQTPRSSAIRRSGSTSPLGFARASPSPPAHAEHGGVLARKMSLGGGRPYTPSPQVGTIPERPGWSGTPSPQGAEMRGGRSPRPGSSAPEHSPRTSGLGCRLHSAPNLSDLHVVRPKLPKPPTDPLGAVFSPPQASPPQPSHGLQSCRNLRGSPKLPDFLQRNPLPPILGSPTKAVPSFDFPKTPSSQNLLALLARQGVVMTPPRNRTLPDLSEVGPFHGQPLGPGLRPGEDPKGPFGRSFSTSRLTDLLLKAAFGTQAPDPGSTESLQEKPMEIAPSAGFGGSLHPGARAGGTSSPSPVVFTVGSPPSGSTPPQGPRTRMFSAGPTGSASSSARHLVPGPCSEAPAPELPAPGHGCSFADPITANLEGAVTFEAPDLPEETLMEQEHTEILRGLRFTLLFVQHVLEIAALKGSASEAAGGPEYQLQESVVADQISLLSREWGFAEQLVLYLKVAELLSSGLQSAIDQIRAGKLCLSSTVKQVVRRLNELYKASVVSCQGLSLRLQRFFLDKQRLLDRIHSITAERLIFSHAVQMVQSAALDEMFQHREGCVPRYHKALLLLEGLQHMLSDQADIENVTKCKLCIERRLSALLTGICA
# How it was run: as §1
# ERK5/MAPK7 = biological target: T9, ERK5/MAPK7 (Homo sapiens, UniProt Q13164); details: 10 μM ATP
# T9 construct: purchased Reaction Biology Corp
# How it was run: as §1
# PYK2 = biological target: T10, PYK2 (Homo sapiens, UniProt Q14289); details: 10 μM ATP
# T10 construct: purchased Reaction Biology Corp
# How it was run: as §1
# [1] = 10 uM, 10 μM ATP, read-out: % Enzyme Activity (relative to DMSO controls) Data 2
# [2] = read-out: % Enzyme Activity (relative to DMSO controls) Data 1
# [3] = read-out: % Enzyme Activity (relative to DMSO controls) AVG
# [4] = read-out: % Enzyme Activity (relative to DMSO controls) Data 2
# T4 sequence (P51617 whole entry): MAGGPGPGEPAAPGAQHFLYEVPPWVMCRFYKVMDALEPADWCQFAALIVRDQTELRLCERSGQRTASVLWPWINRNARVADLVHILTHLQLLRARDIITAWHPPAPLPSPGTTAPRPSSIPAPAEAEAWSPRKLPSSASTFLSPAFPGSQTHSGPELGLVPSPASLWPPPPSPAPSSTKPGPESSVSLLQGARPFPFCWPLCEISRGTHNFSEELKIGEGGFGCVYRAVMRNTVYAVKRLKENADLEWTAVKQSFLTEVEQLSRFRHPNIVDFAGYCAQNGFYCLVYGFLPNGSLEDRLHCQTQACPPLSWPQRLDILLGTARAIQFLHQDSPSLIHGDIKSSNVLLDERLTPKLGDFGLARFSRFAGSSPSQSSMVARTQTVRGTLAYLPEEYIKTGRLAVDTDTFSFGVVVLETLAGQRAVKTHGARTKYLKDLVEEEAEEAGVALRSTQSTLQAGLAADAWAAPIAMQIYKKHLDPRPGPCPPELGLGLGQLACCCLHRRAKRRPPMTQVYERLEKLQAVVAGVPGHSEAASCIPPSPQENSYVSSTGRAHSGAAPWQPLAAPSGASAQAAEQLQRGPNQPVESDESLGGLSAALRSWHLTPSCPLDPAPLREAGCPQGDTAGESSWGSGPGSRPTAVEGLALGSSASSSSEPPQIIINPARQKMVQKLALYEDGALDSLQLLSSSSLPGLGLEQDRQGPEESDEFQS
# T10 sequence (Q14289 whole entry): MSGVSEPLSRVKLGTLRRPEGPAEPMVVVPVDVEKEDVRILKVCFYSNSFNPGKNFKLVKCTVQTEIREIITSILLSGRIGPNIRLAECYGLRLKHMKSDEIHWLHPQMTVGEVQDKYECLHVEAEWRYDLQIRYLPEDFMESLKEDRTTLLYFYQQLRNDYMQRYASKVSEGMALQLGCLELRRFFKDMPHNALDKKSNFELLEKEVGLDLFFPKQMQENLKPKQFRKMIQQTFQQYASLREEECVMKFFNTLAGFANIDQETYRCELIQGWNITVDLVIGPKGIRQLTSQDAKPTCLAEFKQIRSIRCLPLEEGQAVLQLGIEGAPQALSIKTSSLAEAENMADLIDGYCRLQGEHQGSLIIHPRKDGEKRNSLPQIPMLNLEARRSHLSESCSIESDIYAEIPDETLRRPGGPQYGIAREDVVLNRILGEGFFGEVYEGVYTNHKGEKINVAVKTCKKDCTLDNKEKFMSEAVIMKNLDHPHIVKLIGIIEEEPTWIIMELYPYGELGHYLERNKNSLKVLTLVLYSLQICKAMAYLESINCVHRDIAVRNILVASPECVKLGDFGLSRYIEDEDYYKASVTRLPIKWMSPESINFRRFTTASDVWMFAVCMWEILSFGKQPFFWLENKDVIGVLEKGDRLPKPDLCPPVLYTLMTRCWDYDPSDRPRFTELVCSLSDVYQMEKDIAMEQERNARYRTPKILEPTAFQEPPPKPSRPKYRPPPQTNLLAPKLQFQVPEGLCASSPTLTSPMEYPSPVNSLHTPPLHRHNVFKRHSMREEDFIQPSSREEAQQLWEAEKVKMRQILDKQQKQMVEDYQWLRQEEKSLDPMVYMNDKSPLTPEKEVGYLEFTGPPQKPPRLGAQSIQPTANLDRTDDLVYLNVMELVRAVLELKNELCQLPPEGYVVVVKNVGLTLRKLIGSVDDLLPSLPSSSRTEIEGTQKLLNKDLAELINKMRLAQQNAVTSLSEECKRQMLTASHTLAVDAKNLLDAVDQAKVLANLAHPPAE
# T3 sequence (P16591 whole entry): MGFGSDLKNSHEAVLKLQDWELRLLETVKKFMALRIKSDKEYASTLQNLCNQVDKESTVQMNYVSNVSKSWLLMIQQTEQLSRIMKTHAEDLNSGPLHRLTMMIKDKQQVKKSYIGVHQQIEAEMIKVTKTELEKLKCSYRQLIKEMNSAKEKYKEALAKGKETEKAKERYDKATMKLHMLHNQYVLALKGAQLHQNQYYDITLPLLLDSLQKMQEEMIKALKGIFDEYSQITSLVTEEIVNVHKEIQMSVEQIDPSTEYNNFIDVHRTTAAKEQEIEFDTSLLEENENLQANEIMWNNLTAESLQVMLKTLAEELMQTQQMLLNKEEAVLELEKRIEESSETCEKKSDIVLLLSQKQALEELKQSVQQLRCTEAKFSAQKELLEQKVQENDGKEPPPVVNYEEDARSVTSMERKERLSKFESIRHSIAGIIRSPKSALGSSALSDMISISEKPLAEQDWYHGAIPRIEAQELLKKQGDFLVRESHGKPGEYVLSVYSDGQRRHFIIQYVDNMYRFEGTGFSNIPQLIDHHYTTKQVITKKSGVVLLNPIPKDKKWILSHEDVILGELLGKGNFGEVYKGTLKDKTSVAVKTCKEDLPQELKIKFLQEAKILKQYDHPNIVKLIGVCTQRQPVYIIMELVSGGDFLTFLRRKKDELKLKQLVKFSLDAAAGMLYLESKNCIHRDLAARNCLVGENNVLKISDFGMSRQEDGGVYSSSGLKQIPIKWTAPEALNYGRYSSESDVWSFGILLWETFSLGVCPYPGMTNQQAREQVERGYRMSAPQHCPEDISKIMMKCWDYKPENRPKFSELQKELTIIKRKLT
# T1 sequence (P08069 31-1367): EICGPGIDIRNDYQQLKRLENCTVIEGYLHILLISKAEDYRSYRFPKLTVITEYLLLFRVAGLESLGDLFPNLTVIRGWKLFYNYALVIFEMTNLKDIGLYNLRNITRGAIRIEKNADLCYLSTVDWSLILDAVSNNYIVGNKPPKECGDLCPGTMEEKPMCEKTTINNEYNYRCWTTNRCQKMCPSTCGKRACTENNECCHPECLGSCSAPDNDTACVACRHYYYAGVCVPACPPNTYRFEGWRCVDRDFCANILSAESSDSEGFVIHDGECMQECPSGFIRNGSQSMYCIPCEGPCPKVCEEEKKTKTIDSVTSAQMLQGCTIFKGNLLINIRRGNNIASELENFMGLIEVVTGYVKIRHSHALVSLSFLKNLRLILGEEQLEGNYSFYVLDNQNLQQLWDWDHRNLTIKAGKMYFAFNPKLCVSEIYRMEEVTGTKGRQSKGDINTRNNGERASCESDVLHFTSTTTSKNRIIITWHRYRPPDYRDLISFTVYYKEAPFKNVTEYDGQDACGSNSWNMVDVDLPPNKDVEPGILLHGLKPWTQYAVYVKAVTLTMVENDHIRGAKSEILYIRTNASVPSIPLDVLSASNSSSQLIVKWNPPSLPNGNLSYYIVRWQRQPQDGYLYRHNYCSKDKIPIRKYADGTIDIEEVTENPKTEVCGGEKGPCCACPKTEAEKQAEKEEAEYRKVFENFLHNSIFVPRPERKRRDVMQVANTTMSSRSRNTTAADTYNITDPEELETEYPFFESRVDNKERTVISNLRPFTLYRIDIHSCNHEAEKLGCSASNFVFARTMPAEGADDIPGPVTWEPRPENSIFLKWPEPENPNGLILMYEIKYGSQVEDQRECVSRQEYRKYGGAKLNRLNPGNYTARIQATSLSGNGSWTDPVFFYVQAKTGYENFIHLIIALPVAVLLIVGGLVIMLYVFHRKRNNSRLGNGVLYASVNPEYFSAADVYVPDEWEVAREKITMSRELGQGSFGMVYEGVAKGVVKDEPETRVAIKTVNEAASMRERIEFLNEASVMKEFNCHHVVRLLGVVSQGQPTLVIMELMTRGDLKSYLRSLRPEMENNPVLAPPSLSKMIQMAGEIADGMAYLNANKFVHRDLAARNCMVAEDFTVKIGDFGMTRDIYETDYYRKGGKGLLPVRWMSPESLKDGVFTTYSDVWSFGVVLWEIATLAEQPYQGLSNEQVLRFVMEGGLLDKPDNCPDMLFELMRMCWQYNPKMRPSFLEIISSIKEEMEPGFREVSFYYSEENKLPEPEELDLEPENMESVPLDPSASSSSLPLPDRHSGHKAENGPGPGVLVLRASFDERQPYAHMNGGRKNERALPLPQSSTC
# T5 sequence (Q13554 whole entry): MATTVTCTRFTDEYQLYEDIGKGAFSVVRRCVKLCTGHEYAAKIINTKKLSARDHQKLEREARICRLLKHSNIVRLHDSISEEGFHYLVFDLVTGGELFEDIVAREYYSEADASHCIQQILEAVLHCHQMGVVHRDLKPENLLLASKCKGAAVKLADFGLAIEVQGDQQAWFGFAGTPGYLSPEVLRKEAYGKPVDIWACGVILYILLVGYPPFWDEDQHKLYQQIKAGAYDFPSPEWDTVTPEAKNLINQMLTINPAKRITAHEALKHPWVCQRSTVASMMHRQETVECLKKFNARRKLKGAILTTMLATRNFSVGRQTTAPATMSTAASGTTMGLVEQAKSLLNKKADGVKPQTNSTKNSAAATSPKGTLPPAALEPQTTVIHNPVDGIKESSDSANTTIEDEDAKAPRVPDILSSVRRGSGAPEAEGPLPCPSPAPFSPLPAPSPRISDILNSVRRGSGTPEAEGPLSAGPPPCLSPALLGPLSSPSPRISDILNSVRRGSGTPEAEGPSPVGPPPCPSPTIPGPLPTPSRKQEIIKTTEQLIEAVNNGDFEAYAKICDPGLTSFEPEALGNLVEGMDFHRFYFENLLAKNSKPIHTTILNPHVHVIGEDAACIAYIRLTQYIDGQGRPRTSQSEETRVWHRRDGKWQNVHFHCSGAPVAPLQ
smiles,measurement,setting,value
CC(C)(C)C(=O)N1N=CC[C@H]1c1ccccc1 [GSK′963],remaining activity at 10 µM,"IGF1R; 10 uM, 10 μM ATP, read-out: % Enzyme Activity (relative to DMSO controls) AVG",103%
same,remaining activity at 10 µM,IGF1R; [1],104%
same,remaining activity at 10 µM,IGF1R; [2],101%
same,remaining activity at 10 µM,"PKCmu/PRKD1; 10 uM, 10 μM ATP, read-out: % Enzyme Activity (relative to DMSO controls) Data 1",99.9%
same,remaining activity at 10 µM,PKCmu/PRKD1; [1],103%
same,remaining activity at 10 µM,PKCmu/PRKD1; [3],101%
same,remaining activity at 10 µM,FER; [3],107%
same,remaining activity at 10 µM,FER; [2],109%
same,remaining activity at 10 µM,FER; [4],105%
same,remaining activity at 10 µM,IRAK1; [3],115%
same,remaining activity at 10 µM,IRAK1; [2],114%
same,remaining activity at 10 µM,IRAK1; [4],116%
same,remaining activity at 10 µM,CAMK2b; [3],95.1%
same,remaining activity at 10 µM,CAMK2b; [2],94.1%
same,remaining activity at 10 µM,CAMK2b; [4],96.1%
same,remaining activity at 10 µM,MLK2/MAP3K10; [3],99.4%
same,remaining activity at 10 µM,MLK2/MAP3K10; [2],98.6%
same,remaining activity at 10 µM,MLK2/MAP3K10; [4],100%
same,remaining activity at 10 µM,FGFR1; [3],95%
same,remaining activity at 10 µM,FGFR1; [2],95.2%
same,remaining activity at 10 µM,FGFR1; [4],94.8%
same,remaining activity at 10 µM,ULK1; [3],106%
same,remaining activity at 10 µM,ULK1; [2],106%
same,remaining activity at 10 µM,ULK1; [4],106%
same,remaining activity at 10 µM,ERK5/MAPK7; [3],97.8%
same,remaining activity at 10 µM,ERK5/MAPK7; [2],95.5%
same,remaining activity at 10 µM,ERK5/MAPK7; [4],100%
same,remaining activity at 10 µM,PYK2; [3],103%
same,remaining activity at 10 µM,PYK2; [2],103%
same,remaining activity at 10 µM,PYK2; [4],103%
